Where a name gives a salt, the structure may show the parent alone.
Legend:
CCRF-CEM = assay: CellTiter-Glo luminescent cell viability assay (ATP quantification), CCRF-CEM; format: cell-based; conditions: Homo sapiens, CCRF-CEM; acute lymphoblastic leukemia cells, 72 h treatment, viable cells by ATP luminescence
Method: (§1) Influence of the test compounds on viability (proliferation) of cell lines used was investigated in concentration range 0-100 μmol·l^−1.
Suspension cell line CCRF-CEM is a permanent in vitro culture of acute lymphoblastic leukemia. CCRF-CEM cell line was cultivated in RPMI 1640 medium (Sigma-Aldrich, cat. no. R8758) with addition of 2 mmol·l^−1 glutamine (Invitrogen, cat. no. 35050-038), 10% fetal bovine serum (FBS, Sigma-Aldrich, cat. no. F9665), 100 IU/ml peniciline, 100 μg/ml streptomycine (Sigma-Aldrich, cat. no. P0781). Passaging was performed 2-3× a week. Population doubling time of CCRF-CEM cell line was 20 h under the cultivation conditions used.
(§2) In order to test the sensitivity of the cell lines towards the studied helquats, cytotoxity test for cell viability assessment based on ATP quantification in cell lysates was used (CellTiter-Glo® Luminescent Cell Viability Assay, Promega, cat. no. G7571). In this test, ATP in cell lysates is detected using luciferase reaction. Luminescence intensity correlates with the ATP level and thus with quantity of metabolically active (viable) cells. IC50 value serves as the output, that is the concentration of the test compound which leads to 50% reduction in number of viable cells as compared to control, untreated population. To this end, IC50 value reflects efficiency of the test compound with regard to the given cell line.
(§3) Cells in the exponential growth phase were seeded into a 96-well microtiter plate were plated at 3000 cells per well. Each well contained 90 μl of cell suspension. The next day, 10 μl of 10× concentrated test compound solutions were added. The effect of helquats was investigated in concentration range 1 to 100 μmol·l^−1 (e.g. 1; 2.5; 5; 7.5; 10; 15; 25; 50 and 100 μmol·l^−1). Apart from the section containing the concentration series of the test compound, each well contained 2 control columns, the first with pure medium (so called blank) and the second with cells in medium without the test compounds (control). Into wells containing controls and blanks, volume of solvent (water) equal to the volume of added compound solutions was added. After 72 h of incubation with the test compounds viability was determined according to the manufacturer's instructions. In short: microtiter well plate was left 30 min to reach the room temperature after it has been removed from the incubator. Then, into each well, 100 μl of the prepared detection agent was added. Next, the well plate was shaken for 2 min to complete the full lysis. Next, after the well had been left in the dark for 15 min, the luminescence was measured in each well using luminometer (Tecan Genios, Austria).
(§4) IC50 value represents concentration of the test compound, which leads to 50% reduction of viable cells (inhibition of cell growth) after 72 h of the treatment. Each helquat concentration was tested in triplicates in a IC50 quantification and at least 3 independent IC50 quantification experiments were performed. IC50 values over 100 μmol·l^−1 were obtained by extrapolation of data measured in concentration range 0-100 μmol·l^−1 for the given helquat.

MOLT-4 = assay: CellTiter-Glo luminescent cell viability assay (ATP quantification), MOLT-4; format: cell-based; conditions: Homo sapiens, MOLT-4; acute lymfoblastic leukemia cells, 72 h treatment, viable cells by ATP luminescence
Method: as §1
(§5) Suspension cell line MOLT-4 is a permanent in vitro culture of acute lymfoblastic leukemia. Linie MOLT-4 cell line was cultivated in RPMI 1640 medium (Sigma-Aldrich, see above) with addition of 2 mmol glutamine (Invitrogen, see above), 10% fetal bovine serum (FBS, Sigma-Aldrich, see above), 100 IU/ml peniciline, 100 μg/ml streptomycine (Sigma-Aldrich, see above). Passaging was performed 2-3× a week. Population doubling time of MOLT-4 cell line was 25 h under the cultivation conditions used.
as §2, §3, §4

HeLa = assay: CellTiter-Glo luminescent cell viability assay (ATP quantification), HeLa; format: cell-based; conditions: Homo sapiens, HeLa; cervical cancer cells, 72 h treatment, viable cells by ATP luminescence
Method: as §1
Adherent cell line HeLa is a permanent in vitro culture derived from cervical cancer. HeLa cell line was cultivated in RPMI 1640 medium (Dutch modification) (Sigma-Aldrich, cat. no. R7638) with addition of 2 mmol·l^−1 glutamine (Invitrogen, see above), 10% fetal bovine serum (FBS, Sigma-Aldrich, see above), 100 IU/ml peniciline, 100 μg/ml streptomycine (Sigma-Aldrich, see above). Passaging was performed twice a week. After washing of cells with sterile PBS the cells were released by 0.25% trypsin/EDTA (Sigma-Aldrich, cat. no. T4049) at 37° C. for 2 minutes. The trypsin was inactivated by addition of 2 volumes of complete medium, cells were then centrifuged (250×g, 5 min), the cell pellet was resuspended, and transferred in the amount needed into a new cultivation bottle with fresh medium. Population doubling time of […] cell line was 25 h under the cultivation conditions used.
as §2, §3, §4

HL-60 = assay: CellTiter-Glo luminescent cell viability assay (ATP quantification), HL-60; format: cell-based; conditions: Homo sapiens, HL-60; acute promyelocytic leukemia cells, 72 h treatment, viable cells by ATP luminescence
Method: as §1
as §5, with “HL-60” for “MOLT-4”, “promyelocytic” for “lymfoblastic”, “HL-60” for “Linie MOLT-4”, “mmol·l^−1” for “mmol”, “23” for “25”
as §2, §3, §4

HUVEC = assay: CellTiter-Glo luminescent cell viability assay (ATP quantification), HUVEC normal cells; format: cell-based, human; conditions: HUVEC, 72 h treatment
Method: as §1
Normal human endothelial cells from umbilical vein are adherent cells cultivated in plastic Petri dishes coated with collagen I. Into the cultivation medium (E-STIM™; BD Biosciences, cat. co. 355054) already containing 2% FBS (fetal bovine serum), hydrocortisone and heparin the following two further ingredients were added: epidermal growth factor (EGF, 5 μg) and mixture of factors facilitating growth of endothelial cells (ECGS, 100 mg). […] The cells were passaged after reaching 90% confluency by dissociation using 0.25% solution of trypsin/EDTA (1 ml; 3 min; 37° C.). After that 5 ml of complete cultivation medium E-STIM™ was added and the cells were centrifuged (180×g, 7 min), the pellet was resuspended, and transferred in the amount needed into a new Petri dish with fresh medium. The cells were used in experiments between the 3rd and the 8th passage after defreezing. Population doubling time of HUVEC cell line was 38 h under the cultivation conditions used.
as §2, §3, §4

NHDF-Ad = assay: CellTiter-Glo luminescent cell viability assay (ATP quantification), NHDF-Ad normal cells; format: cell-based; conditions: Fibroblast, normal human dermal fibroblasts, 72 h treatment
Source text: as §1
Normal human dermal fibroblasts were cultivated without antibiotics in basal medium for fibroblasts (ATCC/LGC Standards, cat. no. PCS-201-030) with added “Fibroblast Growth Kit-Low serum” (ATCC/LGC Standards, cat. no. PCS-201-041) containing 2% FBS, L-glutamine, hydrocortisone, ascorbic acid, rh FGF beta, rh insulin. When 90% confluency was reached the fibroblasts were washed with sterile PBS (5 ml) and dissociated by addition of 0.25% solution of trypsin/EDTA (2 ml; 2 min; 37° C.). After that 5 ml of cultivation medium for fibroblasts was added and the cells were centrifuged (180×g, 7 min), the cell pellet was resuspended, and transferred in the amount needed into a new cultivation bottle with fresh medium. The same cell release procedure was applied when the cells were to be used in experiments. The cells were used in experiments between the 3rd and the 15th passage after defreeezing. Population doubling time of NHDF-Ad cell line was 33 h under the cultivation conditions used.
as §2, §3, §4

Hep G2 = assay: CellTiter-Glo luminescent cell viability assay (ATP quantification), Hep G2; format: cell-based; conditions: Homo sapiens, HepG2; hepatocellular carcinoma cells, 72 h treatment, viable cells by ATP luminescence
Method: as §1
(§6) Adherent cell line Hep G2 is a permanent in vitro culture derived from liver tissue of a patient with hepatocellular carcinoma. Hep G2 cell line was cultivated in DMEM medium (Sigma-Aldrich, cat. no. M4528) with addition of 2 mmol·l^−1 glutamine (Invitrogen, see above), 10% fetal bovine serum (FBS, Sigma-Aldrich, see above), 100 IU/ml peniciline, 100 μg/ml streptomycine (Sigma-Aldrich, see above). Passaging was performed twice a week. After washing of cells with sterile PBS, the cells were released by 0.25% trypsin/EDTA (Sigma-Aldrich, see above) at 37° C. for 2 minutes. The trypsin was inactivated by addition of 2 volumes of complete medium, cells were then centrifuged (250×g, 5 min), resuspended, and transferred in the amount needed into a new cultivation bottle with fresh medium. Population doubling time of Hep G2 cell line was 28 h under the cultivation conditions used.
as §2
as §3, with “In short: microtiter well plate was left 30 min to reach the room temperature after it has been removed from the incubator. Then, into each well, 100 μl of the prepared detection agent was added. Next, the well plate was shaken for 2 min to complete the full lysis.” left out, “Austria). […]” for “Austria).”

LoVo = assay: CellTiter-Glo luminescent cell viability assay (ATP quantification), LoVo; format: cell-based; conditions: Homo sapiens, LoVo; colorectal carcinoma cells, 72 h treatment, viable cells by ATP luminescence; class symbols
Method: as §1
as §6, with “LoVo” for “Hep G2”, “from” for “from liver”, “colorectal” for “hepatocellular”, “D8437)” for “M4528)”, “39” for “28”
as §2, §3, §4

[1] = normal human endothelial cells, numeric bound, values over 100 obtained by extrapolation of data measured at 0-100 μmol·l−1
[2] = numeric bound, values over 100 obtained by extrapolation of data measured at 0-100 μmol·l−1

| SMILES | melting point [°C] | IC50 (CCRF-CEM) [µM] | IC50 (MOLT-4) [µM] | IC50 (HeLa) [µM] | IC50 (HL-60) [µM] | IC50 (HUVEC; [1]) [µM] | IC50 (NHDF-Ad; [2]) [µM] | IC50 (Hep G2) [µM] | IC50 (LoVo) [µM] | IC50 (HUVEC; normal human endothelial cells from umbilical vein, viable cells by ATP luminescence, class symbols) [µM] | IC50 (NHDF-Ad; viable cells by ATP luminescence, class symbols) [µM] |
| --- | --- | --- | --- | --- | --- | --- | --- | --- | --- | --- | --- |
| CN(C)c1ccc(/C=C/c2cccc3[n+]2CCCc2ccc4c(c2-3)-c2cccc(/C=C/c3ccc(N(C)C)cc3)[n+]2CCC4)cc1 (racemic) (as salt: methanesulfonate) [(rac)-41, (rac)-4,15-bis((E)-4-(dimethylamino)styryl)-6,7,8,11,12,13-hexahydro-dipyrido[1,2-a:1′,2′-a′]benzo[2,1-c:3,4-c′]bisazepinediium trifluoromethanesulfonate] | 318 to 322 |  |  |  |  |  |  |  |  |  |  |
| COc1ccc2cc(/C=C/c3cc[n+]4c(c3)-c3c(c(C)c(C)c5c3-c3c6ccccc6cc[n+]3CC5)CC4)ccc2c1 (racemic) [(rac)-7, (rac)-(E)-13-(2-(6-methoxynaphthalene-2-yl)vinyl)-6,7-dimethyl-4,5,8,9-tetrahydroisoquinolino[1,2-a]pyrido[1,2-k][2,9]phenanthroline-3,10-diium trifluoromethanesulfonate] |  | < 10 | 11 to 50 | 11 to 50 | 11 to 50 | > 150 | > 150 |  |  |  |  |
| Cc1c(C)c2c(c3c1CC[n+]1ccc4ccccc4c1-3)-c1cccc(/C=C/c3cc4c5c(c3)CCCN5CCC4)[n+]1CC2 (racemic) [(rac)-12, (rac)-(E)-11-(2-(1,2,3,5,6,7-hexahydropyrido[3,2,1-ij]yl)vinyl)-6,7-dimethyl-4,5,8,9-tetrahydroisoquinolino[1,2-a]pyrido[1,2-k][2,9]phenanthroline-3,10-diium trifluoromethanesulfonate] |  | 11 to 50 | 51 to 150 | 11 to 50 |  |  |  | 11 to 50 | 51 to 150 | 51 to 150 | 51 to 150 |
| C(=C\c1cc[n+]2c(c1)-c1c(ccc3c1-c1c4ccccc4cc[n+]1CCC3)CCC2)/c1cc2c3c(c1)CCCN3CCC2 (racemic) [(rac)-25, (rac)-(E)-19-(2-(1,2,3,5,6,7-hexahydropyrido[3,2,1-ij]quinolin-9-yl)vinyl)-8,9,10,13,14,15-hexahydropyrido[1′″,2′″:1″,2″]azepino[4″,3″:5′,6′]benzo[1′,2′:3,4]azepino[2,1-a]isoquinoline-7,16-diium trifluoromethanesulfonate] |  | 11 to 50 | 11 to 50 | 11 to 50 | 11 to 50 | > 150 | > 150 |  | 51 to 150 |  |  |
